Ki and IC50 data for nine molecules are collected here from patent publication US20200339604A1, “PYRAZOLOPYRIMIDINE COMPOUNDS AS JAK INHIBITORS” (Genentech, Inc., priority 2018, published 2020).

The term Ki denotes the dissociation constant of the complex between target and ligand, obtained from inhibition or displacement. What is called IC50 is the concentration at which inhibition is half-maximal.

Experiment [1] addresses T1, isolated recombinant JAK1 kinase domain (Homo sapiens, UniProt P23458).
T1 construct: isolated recombinant JAK1 and JAK2 kinase domain
The experiment is described as follows: JAK enzyme assay, JAK1 kinase domain (Caliper LabChip). In kind it is biochemical. The following applies: 1.5 nM JAK1, ATP 25 μM, Morrison tight binding model. On the procedure:
(§1) JAK Enzyme Assays were Carried Out as Follows:
(§2) The activity of the isolated recombinant JAK1 and JAK2 kinase domain was measured by monitoring phosphorylation of a peptide derived from JAK3 ([…] fluorescently labeled on the N-terminus with 5-carboxyfluorescein) using the Caliper LabChip® technology (Caliper Life Sciences, Hopkinton, Mass.). To determine inhibition constants (K), compounds were diluted serially in DMSO and added to 50 μL kinase reactions containing purified enzyme (1.5 nM JAK1, or 0.2 nM JAK2), 100 mM HEPES buffer (pH 7.2), 0.015% Brij-35, 1.5 μM peptide substrate, ATP (25 μM), 10 mM MgCl2, 4 mM DTT at a final DMSO concentration of 2%.
(§3) Reactions were incubated at 22° C. in 384-well polypropylene microtiter plates for 30 minutes and then stopped by addition of 25 µL of an EDTA containing solution (100 mM HEPES buffer (pH 7.2), 0.015% Brij-35, 150 mM EDTA), resulting in a final EDTA concentration of 50 mM. After termination of the kinase reaction, the proportion of phosphorylated product was determined as a fraction of total peptide substrate using the Caliper LabChip® 3000 according to the manufacturer's specifications. K values were then determined using the Morrison tight binding model (Morrison, J. F., Biochim. Biophys. Acta. 185:269-296 (1969); William, J. W. and Morrison, J. F., Meth. Enzymol., 63:437-467 (1979)) modified for ATP-competitive inhibition [Ki=Ki, app/(1+[ATP]/Km,app)].

Experiment [2] concerns the target T2, isolated recombinant JAK2 kinase domain (Homo sapiens, UniProt O60674).
T2 construct: isolated recombinant JAK1 and JAK2 kinase domain
In words: JAK enzyme assay, JAK2 kinase domain (Caliper LabChip). The following applies: 0.2 nM JAK2, ATP 25 μM, Morrison tight binding model. Format: biochemical. On the procedure:
as §1, §2, §3

Experiment [3] deals with JAK1-dependent STAT6 phosphorylation downstream of IL-13 stimulation, BEAS-2B human bronchial epithelial cells. The experiment is described as follows: JAK1 pathway assay in cell lines: IL-13 stimulated STAT6 phosphorylation in BEAS-2B cells (MSD). The following applies: IL-13 stimulation 15 min at EC90, read-out: IL-13 p-STAT6 BEAS-2B IC50. Format: cell-based. On the procedure:
JAK1 Pathway Assay in Cell Lines was Carried Out as Follows:
Inhibitor potency (EC50) was determined in cell-based assays designed to measure JAK1 dependent STAT phosphorylation. As noted above, inhibition of IL-4, IL-13, and IL-9 signaling by blocking the Jak/Stat signaling pathway can alleviate asthmatic symptoms in pre-clinical lung inflammation models (Mathew et al., 2001, J Exp Med 193(9): 1087-1096; Kudlacz et. al., 2008, Eur J. Pharmacol 582(1-3): 154-161).
In one assay approach, TF-1 human erythroleukemia cells obtained from the American Type Culture Collection (ATCC; Manassas, Va.) were used to measure JAK1-dependent STAT6 phosphorylation downstream of IL-13 stimulation. Prior to use in the assays, TF-1 cells were starved of GM-CSF overnight in OptiMEM medium (Life Technologies, Grand Island, N.Y.) supplemented with 0.5% charcoal/dextran stripped fetal bovine serum (FBS), 0.1 mM non-essential amino acids (NEAA), and 1 mM sodium pyruvate. The assays were run in 384-well plates in serum-free OptiMEM medium using 300,000 cells per well. In a second assay approach, BEAS-2B human bronchial epithelial cells obtained from ATCC were plated at 100,000 cells per well of a 96-well plate one day prior to the experiment. The BEAS-2B assay was run in complete growth medium (bronchial epithelial basal medium plus bulletkit; Lonza; Basel, Switzerland).
Test compounds were serially diluted 1:2 in DMSO and then diluted 1:50 in medium just before use. Diluted compounds were added to the cells, for a final DMSO concentration of […], and incubated for 30 m (for the TF-1 assay) or […] (for the BEAS-2B assay) at 37° C. Then, cells were stimulated with human recombinant cytokine at their respective EC90 concentrations, as previously determined for each individual lot. Cells were stimulated with IL-13 (R&D Systems, Minneapolis, Minn.) for 15 min at 37° C. The TF-1 cell reactions were stopped by the direct addition of 10× lysis buffer (Cell Signaling Technologies, Danvers, Mass.), whereas the BEAS-2B cell incubations were halted by the removal of medium and addition of 1× lysis buffer. The resultant samples were frozen in the plates at −80° C. Compound mediated inhibition of STAT6 phosphorylation was measured in the cell lysates using MesoScale Discovery (MSD) technology (Gaithersburg, Md.).

Like-named read-outs stand apart in the source and are kept apart here.

T1 sequence (P23458 875-1153 limits assumed): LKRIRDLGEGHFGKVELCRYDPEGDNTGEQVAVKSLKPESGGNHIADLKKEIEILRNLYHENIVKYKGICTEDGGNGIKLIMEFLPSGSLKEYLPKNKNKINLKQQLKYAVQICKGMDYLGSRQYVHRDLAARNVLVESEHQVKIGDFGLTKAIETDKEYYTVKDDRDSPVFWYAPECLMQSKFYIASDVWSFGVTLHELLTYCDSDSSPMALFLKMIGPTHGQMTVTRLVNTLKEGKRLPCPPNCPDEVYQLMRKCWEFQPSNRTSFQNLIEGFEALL
T2 sequence (O60674 849-1124 limits assumed): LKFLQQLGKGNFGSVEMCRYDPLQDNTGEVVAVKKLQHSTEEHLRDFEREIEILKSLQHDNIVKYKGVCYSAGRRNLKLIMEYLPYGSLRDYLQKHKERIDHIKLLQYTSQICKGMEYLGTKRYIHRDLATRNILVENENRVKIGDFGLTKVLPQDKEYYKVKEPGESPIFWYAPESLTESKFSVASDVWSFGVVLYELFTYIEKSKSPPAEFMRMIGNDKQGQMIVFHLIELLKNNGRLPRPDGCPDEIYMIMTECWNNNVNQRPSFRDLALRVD

Regarding `O=C(Nc1cn(C2CCCCC2=O)nc1-c1cc(Cl)ccc1OC(F)F)c1cnn2cccnc12` (racemic) [Example 1, N-[3-[5-chloro-2-(difluoromethoxy)phenyl]-1-(2-oxocyclohexyl)pyrazol-4-yl] pyrazolo [1,5-a] pyrimidine-3-carboxamide], the inhibition constant (Ki) in experiment [1] is 1.1 nM; in experiment [2], 1.4 nM. Also, the IC50 in experiment [3] (Homo sapiens, BEAS-2B, […]) came to 33 nM.

As for `CN1CCC(n2cc(NC(=O)c3cnn4cccnc34)c(-c3cc(Cl)c(C#N)cc3OC(F)F)n2)C1=O` (racemic) [Example 22, N-[3-[5-chloro-4-cyano-2-(difluoromethoxy)phenyl]-1-(1-methyl-2-oxo-pyrrolidin-3-yl)pyrazol-4-yl]pyrazolo[1,5-a]pyrimidine-3-carboxamide], the Ki came out at 2.5 nM in experiment [1] and 4 nM in experiment [2]. The IC50 in experiment [3] (Homo sapiens, BEAS-2B, […]) is 98 nM.

Take `O=C(Nc1cn(C2CCOC2=O)nc1-c1cc(Cl)ccc1OC(F)F)c1cnn2cccnc12` (racemic) [Example 25, N-[3-[5-chloro-2-(difluoromethoxy)phenyl]-1-(2-oxotetrahydrofuran-3-yl)pyrazol-4-yl]pyrazolo[1,5-a]pyrimidine-3-carboxamide; formic acid]: the Ki in experiment [1] came out at 0.37 nM; in experiment [2] it was 0.21 nM. Further, the IC50 in experiment [3] (Homo sapiens, BEAS-2B, […]) is 19 nM.

For `O=C(Nc1cn(C2CCCC2=O)nc1-c1cc(Cl)ccc1OC(F)F)c1cnn2cccnc12` (racemic) [Example 35, N-[3-[5-chloro-2-(difluoromethoxy)phenyl]-1-(2-oxocyclopentyl)pyrazol-4-yl]pyrazolo[1,5-a]pyrimidine-3-carboxamide], the Ki in experiment [1] was 0.79 nM; in experiment [2], 0.45 nM. Moreover, in experiment [3] (Homo sapiens, BEAS-2B, […]), the IC50 is 16 nM.

For `O=C(Nc1cn([C@H]2CCNC2=O)nc1-c1cc(Cl)ccc1OC(F)F)c1cnn2cccnc12` (single isomer, unassigned) [Example 4, N-[3-[5-chloro-2-(difluoromethoxy)phenyl]-1-(2-oxopyrrolidin-3-yl)pyrazol-4-yl]pyrazolo[1,5-a]pyrimidine-3-carboxamide], the Ki turned out to be 0.78 nM in experiment [1] and 0.4 nM in experiment [2]. Further, the half-inhibitory concentration (IC50) in experiment [3] (Homo sapiens, BEAS-2B, […]) stood at 24 nM.

Consider `O=C(Nc1cn(C2CCNC2=O)nc1-c1cc(Cl)ccc1OC(F)F)c1cnn2cccnc12` (single isomer, unassigned) [Example 5, N-[3-[5-chloro-2-(difluoromethoxy)phenyl]-1-(2-oxopyrrolidin-3-yl)pyrazol-4-yl]pyrazolo[1,5-a]pyrimidine-3-carboxamide], for which the Ki in experiment [1] is 1.8 nM; in experiment [2], 0.48 nM. The half-maximal inhibitory concentration (IC50) in experiment [3] (Homo sapiens, BEAS-2B, […]) came out at 40 nM.

For `CSc1ccc(OC(F)F)c(-c2nn(C3CCN(C)C3=O)cc2NC(=O)c2cnn3cccnc23)c1` (single isomer, unassigned) [Example 6, N-[3-[2-(difluoromethoxy)-5-methylsulfanyl-phenyl]-1-(1-methyl-2-oxo-pyrrolidin-3-yl)pyrazol-4-yl]pyrazolo[1,5-a]pyrimidine-3-carboxamide], the figures for the Ki in experiment [1] and in experiment [2] were 0.18 nM and 0.24 nM, respectively. Moreover, in experiment [3], the concentration for half-maximal inhibition (IC50) worked out at 11 nM.

With `CSc1ccc(OC(F)F)c(-c2nn(C3CCN(C)C3=O)cc2NC(=O)c2cnn3cccnc23)c1` (single isomer, unassigned) [Example 7, N-[3-[2-(difluoromethoxy)-5-methylsulfanyl-phenyl]-1-(1-methyl-2-oxo-pyrrolidin-3-yl)pyrazol-4-yl]pyrazolo[1,5-a]pyrimidine-3-carboxamide], the Ki in experiment [1] was found to be 0.84 nM; in experiment [2] it was 0.31 nM. Further, the IC50 in experiment [3] stood at 42 nM.

As for `CN1CCC(n2cc(NC(=O)c3cnn4cccnc34)c(-c3cc(OC(F)F)ccc3OC(F)F)n2)C1=O` (single isomer, unassigned) [Example 8, N-[3-[2,5-bis(difluoromethoxy)phenyl]-1-(1-methyl-2-oxo-pyrrolidin-3-yl)pyrazol-4-yl]pyrazolo[1,5-a]pyrimidine-3-carboxamide], the Ki stood at 0.3 nM in experiment [1] and 0.84 nM in experiment [2]. Besides, the concentration for half-maximal inhibition (IC50) in experiment [3] amounted to 20 nM.
